Reference: the supplement of paper PMC10307832

Tests used:
Test in all cases: relative viability (nuclei count vs DMSO), 5 days (fraction); higher = more cells survive
[1] = compound: O=C(CCCCCCC(=O)Nc1ccccc1)NO [Vorinostat] + CC(C)C[C@H](NC(=O)[C@H](Cc1ccccc1)NC(=O)c1cnccn1)B(O)O [Bortezomib] (partner 0.002 µM)
Method in brief: (§1)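 Lung cancer cell lines were pin-tool dosed in 1536-well plates on the day after seeding, with either a lone drug or a fixed anchor-drug dose plus five library-drug doses (not always all listed) in √10 steps. Nuclei were counted on 4× images after 5 days. Relative viability is the ratio of treated-well to vehicle-well nuclei counts, with each value a median of duplicate plates.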

[2] = compound: O=C(CCCCCCC(=O)Nc1ccccc1)NO [Vorinostat] + Cc1nc(NC(=O)N2CCC[C@H]2C(N)=O)sc1-c1ccnc(C(C)(C)C(F)(F)F)c1 [Alpelisib] (partner 2 µM)
Method in brief: as §1

[3] = compound: O=C(CCCCCCC(=O)Nc1ccccc1)NO [Vorinostat] + C[C@]1(O)C[C@@H](c2nc(-c3ccc4ccc(-c5ccccc5)nc4c3)c3c(N)nccn32)C1 [Linsitinib] (partner 1 µM)
Method in brief: as §1

[4] = compound: O=C(CCCCCCC(=O)Nc1ccccc1)NO [Vorinostat] + CS(=O)(=O)CCNCc1ccc(-c2ccc3ncnc(Nc4ccc(OCc5cccc(F)c5)c(Cl)c4)c3c2)o1 [Lapatinib] (partner 2 µM)
Method in brief: as §1

[5] = compound: O=C(CCCCCCC(=O)Nc1ccccc1)NO [Vorinostat] + CC1(C)CCC(c2ccc(Cl)cc2)=C(CN2CCN(c3ccc(C(=O)NS(=O)(=O)c4ccc(N[C@H](CCN5CCOCC5)CSc5ccccc5)c(S(=O)(=O)C(F)(F)F)c4)cc3)CC2)C1 [Navitoclax] (partner 0.5 µM)
Method in brief: as §1

[6] = compound: O=C(CCCCCCC(=O)Nc1ccccc1)NO [Vorinostat] + C[C@@H](Oc1cc(-c2cnn(C3CCNCC3)c2)cnc1N)c1c(Cl)ccc(F)c1Cl [Crizotinib] (partner 1 µM)
Method in brief: as §1

[7] = compound: O=C(CCCCCCC(=O)Nc1ccccc1)NO [Vorinostat] + O=C(c1cc(Cc2n[nH]c(=O)c3ccccc23)ccc1F)N1CCN(C(=O)C2CC2)CC1 [Olaparib] (partner 8 µM)
Method in brief: as §1

[8] = compound: O=C(CCCCCCC(=O)Nc1ccccc1)NO [Vorinostat] + COc1cc2c(Oc3ccc(NC(=O)C4(C(=O)Nc5ccc(F)cc5)CC4)cc3F)ccnc2cc1OCCCN1CCOCC1 [Foretinib] (partner 0.25 µM)
Method in brief: as §1

[9] = compound: O=C(CCCCCCC(=O)Nc1ccccc1)NO [Vorinostat] + CS(=O)(=O)N1CCN(Cc2cc3nc(-c4cccc5[nH]ncc45)nc(N4CCOCC4)c3s2)CC1 [Pictilisib] (partner 1 µM)
Method in brief: as §1

[10] = compound: O=C(CCCCCCC(=O)Nc1ccccc1)NO [Vorinostat]
Method in brief: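 Cells of lung cancer lines were placed in 1536-well plates and kept overnight at 37 °C. Pinning then delivered five library-drug doses (not always all listed), spaced by √10, onto plates anchored with vehicle, and the cells were left 5 days without changing medium. One step fixed, permeabilised and stained them with Hoechst, and MetaXpress counted nuclei in 4× images. Viability, as a median over plates, is treated-well nuclei divided by vehicle-well nuclei, with acceptance only at control CV below 25% and at least one doubling.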

[11] = compound: O=C(CCCCCCC(=O)Nc1ccccc1)NO [Vorinostat] + Cc1cc(Nc2cc(N3CCN(C)CC3)nc(Sc3ccc(NC(=O)C4CC4)cc3)n2)n[nH]1 [Tozasertib] (partner 0.1 µM)
Method in brief: as §1

[12] = compound: O=C(CCCCCCC(=O)Nc1ccccc1)NO [Vorinostat] + NC(=O)Nc1cc(-c2cccc(F)c2)sc1C(=O)N[C@H]1CCCNC1 [AZD7762] (partner 0.2 µM)
Method in brief: as §1

[13] = compound: O=C(CCCCCCC(=O)Nc1ccccc1)NO [Vorinostat] + CC(=O)c1c(C)c2cnc(Nc3ccc(N4CCNCC4)cn3)nc2n(C2CCCC2)c1=O [Palbociclib] (partner 0.5 µM)
Method in brief: as §1

[14] = compound: O=C(CCCCCCC(=O)Nc1ccccc1)NO [Vorinostat] + COc1cccc2cc(-c3nc([C@H]4CC[C@H](C(=O)O)CC4)n4ncnc(N)c34)[nH]c12 [OSI-027] (partner 0.5 µM)
Method in brief: as §1

[15] = compound: O=C(CCCCCCC(=O)Nc1ccccc1)NO [Vorinostat] + Nc1ncn([C@H]2C[C@H](O)[C@@H](CO)O2)c(=O)n1 [Decitabine] (partner 2 µM)
Method in brief: as §1

[16] = compound: O=C(CCCCCCC(=O)Nc1ccccc1)NO [Vorinostat] + Nc1nc2[nH]cc(CCc3ccc(C(=O)N[C@@H](CCC(=O)O)C(=O)O)cc3)c2c(=O)[nH]1 [Pemetrexed] (partner 0.2 µM)
Method in brief: as §1

[17] = compound: O=C(CCCCCCC(=O)Nc1ccccc1)NO [Vorinostat] + CC(=O)Nc1cccc(-n2c(=O)n(C3CC3)c(=O)c3c(Nc4ccc(I)cc4F)n(C)c(=O)c(C)c32)c1 [Trametinib] (partner 0.02 µM)
Method in brief: as §1

[18] = compound: O=C(CCCCCCC(=O)Nc1ccccc1)NO [Vorinostat] + Cc1nc(Nc2ncc(C(=O)Nc3c(C)cccc3Cl)s2)cc(N2CCN(CCO)CC2)n1 [Dasatinib] (partner 0.075 µM)
Method in brief: as §1

[19] = compound: O=C(CCCCCCC(=O)Nc1ccccc1)NO [Vorinostat] + N=C(N)NC(=N)NCCc1ccccc1 [Phenformin] (partner 250 µM)
Method in brief: as §1

[20] = compound: O=C(CCCCCCC(=O)Nc1ccccc1)NO [Vorinostat] + CCNC(=O)c1noc(-c2cc(C(C)C)c(O)cc2O)c1-c1ccc(CN2CCOCC2)cc1 [Luminespib] (partner 0.01 µM)
Method in brief: as §1

NCI-H1299
relative viability ([1]; first compound 0.253 µM): 1.07
relative viability ([1]; first compound 0.8 µM): 1.03
relative viability ([1]; first compound 2.53 µM): 0.826
relative viability ([1]; first compound 8 µM): 0.343
relative viability ([2]; first compound 0.253 µM): 1.15
relative viability ([2]; first compound 0.8 µM): 1.05
relative viability ([2]; first compound 2.53 µM): 0.789
relative viability ([2]; first compound 8 µM): 0.454
relative viability ([3]; first compound 0.253 µM): 1.15
relative viability ([3]; first compound 0.8 µM): 0.923
relative viability ([3]; first compound 2.53 µM): 0.51
relative viability ([3]; first compound 8 µM): 0.265
relative viability ([4]; first compound 0.253 µM): 0.979
relative viability ([4]; first compound 0.8 µM): 0.87
relative viability ([4]; first compound 2.53 µM): 0.736
relative viability ([4]; first compound 8 µM): 0.466
relative viability ([5]; first compound 0.253 µM): 1.07
relative viability ([5]; first compound 0.8 µM): 1
relative viability ([5]; first compound 2.53 µM): 0.767
relative viability ([5]; first compound 8 µM): 0.444
relative viability ([6]; first compound 0.253 µM): 0.992
relative viability ([6]; first compound 0.8 µM): 0.812
relative viability ([6]; first compound 2.53 µM): 0.554
relative viability ([6]; first compound 8 µM): 0.291
relative viability ([7]; first compound 0.253 µM): 1
relative viability ([7]; first compound 0.8 µM): 0.909
relative viability ([7]; first compound 2.53 µM): 0.642
relative viability ([7]; first compound 8 µM): 0.329
relative viability ([8]; first compound 0.253 µM): 1.05
relative viability ([8]; first compound 0.8 µM): 1.06
relative viability ([8]; first compound 2.53 µM): 0.717
relative viability ([8]; first compound 8 µM): 0.277
relative viability ([9]; first compound 0.253 µM): 1.1
relative viability ([9]; first compound 0.8 µM): 0.677
relative viability ([9]; first compound 2.53 µM): 0.221
relative viability ([9]; first compound 8 µM): 0.075
relative viability ([10]; 0.253 µM): 1.06
relative viability ([10]; 0.8 µM): 0.979
relative viability ([10]; 2.53 µM): 0.786
relative viability ([10]; 8 µM): 0.36

NCI-H1648
relative viability ([11]; first compound 0.253 µM): 0.457
relative viability ([11]; first compound 0.8 µM): 0.319
relative viability ([11]; first compound 2.53 µM): 0.161
relative viability ([11]; first compound 8 µM): 0.158
relative viability ([12]; first compound 0.253 µM): 0.51
relative viability ([12]; first compound 0.8 µM): 0.496
relative viability ([12]; first compound 2.53 µM): 0.331
relative viability ([12]; first compound 8 µM): 0.212
relative viability ([13]; first compound 0.253 µM): 0.278
relative viability ([13]; first compound 0.8 µM): 0.239
relative viability ([13]; first compound 2.53 µM): 0.224
relative viability ([13]; first compound 8 µM): 0.213
relative viability ([14]; first compound 0.253 µM): 0.252
relative viability ([14]; first compound 0.8 µM): 0.267
relative viability ([14]; first compound 2.53 µM): 0.28
relative viability ([14]; first compound 8 µM): 0.263
relative viability ([15]; first compound 0.253 µM): 0.414
relative viability ([15]; first compound 0.8 µM): 0.473
relative viability ([15]; first compound 2.53 µM): 0.215
relative viability ([15]; first compound 8 µM): 0.22
relative viability ([7]; first compound 0.253 µM): 1.13
relative viability ([7]; first compound 0.8 µM): 0.674
relative viability ([7]; first compound 2.53 µM): 0.212
relative viability ([7]; first compound 8 µM): 0.201
relative viability ([16]; first compound 0.253 µM): 0.598
relative viability ([16]; first compound 0.8 µM): 0.595
relative viability ([16]; first compound 2.53 µM): 0.428
relative viability ([16]; first compound 8 µM): 0.241
relative viability ([17]; first compound 0.253 µM): 0.596
relative viability ([17]; first compound 0.8 µM): 0.494
relative viability ([17]; first compound 2.53 µM): 0.191
relative viability ([17]; first compound 8 µM): 0.191
relative viability ([10]; 0.253 µM): 0.815
relative viability ([10]; 0.8 µM): 0.725
relative viability ([10]; 1 µM, anchor plate): 0.596
relative viability ([10]; 2.53 µM): 0.252
relative viability ([10]; 8 µM): 0.209

NCI-H1623
relative viability ([18]; first compound 0.253 µM): 0.387
relative viability ([18]; first compound 0.8 µM): 0.521
relative viability ([18]; first compound 2.53 µM): 0.436
relative viability ([18]; first compound 8 µM): 0.203
relative viability ([19]; first compound 0.253 µM): 0.61
relative viability ([19]; first compound 0.8 µM): 0.564
relative viability ([19]; first compound 2.53 µM): 0.462
relative viability ([19]; first compound 8 µM): 0.225
relative viability ([11]; first compound 0.253 µM): 0.41
relative viability ([11]; first compound 0.8 µM): 0.408
relative viability ([11]; first compound 2.53 µM): 0.283
relative viability ([11]; first compound 8 µM): 0.217
relative viability ([20]; first compound 0.253 µM): 0.529
relative viability ([20]; first compound 0.8 µM): 0.564
relative viability ([20]; first compound 2.53 µM): 0.398
relative viability ([20]; first compound 8 µM): 0.291
relative viability ([14]; first compound 0.253 µM): 0.462
relative viability ([14]; first compound 0.8 µM): 0.392
relative viability ([14]; first compound 2.53 µM): 0.281
relative viability ([14]; first compound 8 µM): 0.209
relative viability ([8]; first compound 0.253 µM): 0.918
relative viability ([8]; first compound 0.8 µM): 0.781
relative viability ([8]; first compound 2.53 µM): 0.42
relative viability ([8]; first compound 8 µM): 0.233
relative viability ([10]; 0.253 µM): 0.916
relative viability ([10]; 0.8 µM): 0.948
relative viability ([10]; 2.53 µM): 0.358
relative viability ([10]; 8 µM): 0.217
